Reference: PMC8352984, “Estrogen mediates sex differences in preoptic neuropeptide and pituitary hormone production in medaka” (Communications Biology, 2021)

Key:
[1] = test system: thyroid-stimulating hormone β subunit (tshb) gene expression; assay: Ex vivo pituitary organ culture, real-time PCR of tshb; assay type: cell-based, medaka (Oryzias latipes); conditions: for tshb expression (in words): 10^-5 M, 24 h, 25 °C, vs vehicle
Text: (§1) Fig. 8 Pacap and Vip have pleiotropic effects on the expression of anterior pituitary hormones. The effects of Pacap and Vip on gene expression levels of follicle-stimulating hormone β subunit (fshb), luteinizing hormone β subunit (lhb), thyroid-stimulating hormone β subunit (tshb), growth hormone (gh), somatolactin (sl), prolactin (prl), and pro-opiomelanocortin (pomc) were investigated by using male and female pituitaries cultured ex vivo (n = 6 per group, except male pituitary supplemented with Vip, where n = 5). Data were expressed as means with error bars representing standard error of the mean. Statistical differences were assessed by Dunnett’s post-hoc test. *p < 0.05; **p < 0.01; ***p < 0.001.
(§2) The pituitaries from five male or female fish were pooled for each sample and cultured ex vivo in Leibovitz’s L-15 medium supplemented with 5% charcoal-stripped fetal bovine serum as described elsewhere. The medium was further supplemented with 10^−5 M medaka Pacap or Vip, or vehicle alone. After 24 h of culture at 25 °C, the pituitaries were processed for total RNA extraction and cDNA synthesis by using the RNeasy Plus Micro Kit (Qiagen) and SuperScript VILO cDNA Synthesis Kit (Thermo Fisher Scientific), respectively. Real-time PCR was performed on the LightCycler 480 System II using LightCycler 480 SYBR Green I Master (Roche Diagnostics). The cycle conditions were: 95 °C for 5 min followed by 45 cycles of 95 °C for 10 sec, 60 °C for 10 sec and 72 °C for 10 sec. Melting curve analysis was performed as described above. Data were normalized to the geometric mean of three reference genes, actb, gapdh (encoding glyceraldehyde-3-phosphate dehydrogenase; National BioResource Project (NBRP) Medaka clone ID olbrno9_f15) and rpl13 (encoding ribosomal protein L13; NBRP Medaka clone ID olovano51_b24), according to Vandesompele et al.[63]. The primers used for real-time PCR are listed in Supplementary Table 3.

[2] = test system: growth hormone (gh) gene expression; assay: Ex vivo pituitary organ culture, real-time PCR of gh; assay type: cell-based, medaka (Oryzias latipes); conditions: for gh expression (in words): 10^-5 M, 24 h, 25 °C, vs vehicle
Text: as §1, §2

[3] = test system: somatolactin (sl) gene expression; assay: Ex vivo pituitary organ culture, real-time PCR of sl; assay type: cell-based, medaka (Oryzias latipes); conditions: for sl expression (in words): 10^-5 M, 24 h, 25 °C, vs vehicle
Text: as §1, §2

[4] = test system: prolactin (prl) gene expression; assay: Ex vivo pituitary organ culture, real-time PCR of prl; assay type: cell-based, medaka (Oryzias latipes); conditions: for prl expression (in words): 10^-5 M, 24 h, 25 °C, vs vehicle
Text: as §1, §2

[5] = test system: Sl-producing cells, via Adcyap1r1; set-up: method as in PMID 18523122, PMID 19540424, PMID 23422837; conditions: grass carp and goldfish; cited from earlier work
[6] = test system: luteinizing hormone release via Adcyap1r1; set-up: method as in PMID 10949084; conditions: goldfish and rat; cited from earlier work
Text: (§3) Contrary to pomc, fshb expression was female-biased and repressed by Pacap and Vip in a female-specific manner. […] Possibly, Pacap may have a similar mechanism of action in medaka. In medaka, however, the inhibitory effect on fshb is assumed to be primarily driven ...

[7] = test system: Fshb expression, gonadotrophs; conditions: dispersed rat pituitary cells; cited from earlier work
Text: as §3

Substance: Pituitary adenylate cyclase-activating polypeptide [Pacap]
- tshb expression (in words) ([1]; female pituitaries): no significant effects
- tshb expression (Fig. 8, tshb) ([1]; female, replicate 1): 0.514
- tshb expression (Fig. 8, tshb) ([1]; female, replicate 2): 0.485
- tshb expression (Fig. 8, tshb) ([1]; female, replicate 3): 0.534
- tshb expression (Fig. 8, tshb) ([1]; female, replicate 4): 0.502
- tshb expression (Fig. 8, tshb) ([1]; female, replicate 5): 0.686
- tshb expression (Fig. 8, tshb) ([1]; female, replicate 6): 0.387
- tshb expression (in words) ([1]; male pituitaries): no significant effects
- tshb expression (Fig. 8, tshb) ([1]; male, replicate 1): 0.207
- tshb expression (Fig. 8, tshb) ([1]; male, replicate 2): 0.364
- tshb expression (Fig. 8, tshb) ([1]; male, replicate 3): 1.165
- tshb expression (Fig. 8, tshb) ([1]; male, replicate 4): 0.157
- tshb expression (Fig. 8, tshb) ([1]; male, replicate 5): 2.250
- tshb expression (Fig. 8, tshb) ([1]; male, replicate 6): 0.895
- gh expression (in words) ([2]; female pituitaries): no significant effects
- gh expression (Fig. 8, gh) ([2]; female, replicate 1): 0.960
- gh expression (Fig. 8, gh) ([2]; female, replicate 2): 0.795
- gh expression (Fig. 8, gh) ([2]; female, replicate 3): 0.779
- gh expression (Fig. 8, gh) ([2]; female, replicate 4): 0.968
- gh expression (Fig. 8, gh) ([2]; female, replicate 5): 0.957
- gh expression (Fig. 8, gh) ([2]; female, replicate 6): 1.344
- gh expression (in words) ([2]; male pituitaries): no significant effects
- gh expression (Fig. 8, gh) ([2]; male, replicate 1): 0.248
- gh expression (Fig. 8, gh) ([2]; male, replicate 2): 0.325
- gh expression (Fig. 8, gh) ([2]; male, replicate 3): 0.488
- gh expression (Fig. 8, gh) ([2]; male, replicate 4): 0.330
- gh expression (Fig. 8, gh) ([2]; male, replicate 5): 0.376
- gh expression (Fig. 8, gh) ([2]; male, replicate 6): 0.724
- sl expression (in words) ([3]; female pituitaries): substantially increased
- sl expression (Fig. 8, sl) ([3]; female, replicate 1): 5.138
- sl expression (Fig. 8, sl) ([3]; female, replicate 2): 3.103
- sl expression (Fig. 8, sl) ([3]; female, replicate 3): 4.426
- sl expression (Fig. 8, sl) ([3]; female, replicate 4): 3.042
- sl expression (Fig. 8, sl) ([3]; female, replicate 5): 2.318
- sl expression (Fig. 8, sl) ([3]; female, replicate 6): 4.074
- sl expression (in words) ([3]; male pituitaries): substantially increased
- sl expression (Fig. 8, sl) ([3]; male, replicate 1): 1.710
- sl expression (Fig. 8, sl) ([3]; male, replicate 2): 1.255
- sl expression (Fig. 8, sl) ([3]; male, replicate 3): 1.415
- sl expression (Fig. 8, sl) ([3]; male, replicate 4): 1.513
- sl expression (Fig. 8, sl) ([3]; male, replicate 5): 0.886
- sl expression (Fig. 8, sl) ([3]; male, replicate 6): 2.724
- prl expression (in words) ([4]; female pituitaries): substantially increased
- prl expression (Fig. 8, prl) ([4]; female, replicate 1): 3.510
- prl expression (Fig. 8, prl) ([4]; female, replicate 2): 4.473
- prl expression (Fig. 8, prl) ([4]; female, replicate 3): 4.149
- prl expression (Fig. 8, prl) ([4]; female, replicate 4): 4.897
- prl expression (Fig. 8, prl) ([4]; female, replicate 5): 3.291
- prl expression (Fig. 8, prl) ([4]; female, replicate 6): 4.279
- prl expression (in words) ([4]; male pituitaries): substantially increased
- prl expression (Fig. 8, prl) ([4]; male, replicate 1): 1.555
- prl expression (Fig. 8, prl) ([4]; male, replicate 2): 3.928
- prl expression (Fig. 8, prl) ([4]; male, replicate 3): 2.640
- prl expression (Fig. 8, prl) ([4]; male, replicate 4): 1.612
- prl expression (Fig. 8, prl) ([4]; male, replicate 5): 3.371
- prl expression (Fig. 8, prl) ([4]; male, replicate 6): 6.401
- synthesis and release of Sl (in words) [5]: stimulate the synthesis and release of Sl via Adcyap1r1
- release of luteinizing hormone (in words) [6]: directly stimulates the release of luteinizing hormone via Adcyap1r1
- fshb expression (in words) [7]: acts directly on gonadotrophs to inhibit Fshb expression

Substance: vasoactive intestinal peptide [Vip]
- tshb expression (in words) ([1]; female pituitaries): no significant effects
- tshb expression (Fig. 8, tshb) ([1]; female, replicate 1): 1.106
- tshb expression (Fig. 8, tshb) ([1]; female, replicate 2): 0.773
- tshb expression (Fig. 8, tshb) ([1]; female, replicate 3): 0.549
- tshb expression (Fig. 8, tshb) ([1]; female, replicate 4): 1.002
- tshb expression (Fig. 8, tshb) ([1]; female, replicate 5): 0.461
- tshb expression (Fig. 8, tshb) ([1]; female, replicate 6): 0.560
- tshb expression (in words) ([1]; male pituitaries): no significant effects
- tshb expression (Fig. 8, tshb) ([1]; male, replicate 1): 0.809
- tshb expression (Fig. 8, tshb) ([1]; male, replicate 2): 1.442
- tshb expression (Fig. 8, tshb) ([1]; male, replicate 3): 0.793
- tshb expression (Fig. 8, tshb) ([1]; male, replicate 5): 0.484
- tshb expression (Fig. 8, tshb) ([1]; male, replicate 6): 0.743
- gh expression (in words) ([2]; female pituitaries): no significant effects
- gh expression (Fig. 8, gh) ([2]; female, replicate 1): 0.831
- gh expression (Fig. 8, gh) ([2]; female, replicate 2): 0.891
- gh expression (Fig. 8, gh) ([2]; female, replicate 3): 0.819
- gh expression (Fig. 8, gh) ([2]; female, replicate 4): 0.622
- gh expression (Fig. 8, gh) ([2]; female, replicate 5): 0.476
- gh expression (Fig. 8, gh) ([2]; female, replicate 6): 1.314
- gh expression (in words) ([2]; male pituitaries): no significant effects
- gh expression (Fig. 8, gh) ([2]; male, replicate 1): 0.673
- gh expression (Fig. 8, gh) ([2]; male, replicate 2): 0.774
- gh expression (Fig. 8, gh) ([2]; male, replicate 3): 0.572
- gh expression (Fig. 8, gh) ([2]; male, replicate 5): 0.496
- gh expression (Fig. 8, gh) ([2]; male, replicate 6): 0.481
- sl expression (in words) ([3]; female pituitaries): substantially increased
- sl expression (Fig. 8, sl) ([3]; female, replicate 1): 2.764
- sl expression (Fig. 8, sl) ([3]; female, replicate 2): 2.848
- sl expression (Fig. 8, sl) ([3]; female, replicate 3): 3.893
- sl expression (Fig. 8, sl) ([3]; female, replicate 4): 3.276
- sl expression (Fig. 8, sl) ([3]; female, replicate 5): 2.230
- sl expression (Fig. 8, sl) ([3]; female, replicate 6): 4.010
- sl expression (in words) ([3]; male pituitaries): substantially increased
- sl expression (Fig. 8, sl) ([3]; male, replicate 1): 2.507
- sl expression (Fig. 8, sl) ([3]; male, replicate 2): 2.455
- sl expression (Fig. 8, sl) ([3]; male, replicate 3): 2.960
- sl expression (Fig. 8, sl) ([3]; male, replicate 5): 2.682
- sl expression (Fig. 8, sl) ([3]; male, replicate 6): 1.395
- prl expression (in words) ([4]; female pituitaries): substantially increased
- prl expression (Fig. 8, prl) ([4]; female, replicate 1): 4.014
- prl expression (Fig. 8, prl) ([4]; female, replicate 2): 5.400
- prl expression (Fig. 8, prl) ([4]; female, replicate 3): 2.330
- prl expression (Fig. 8, prl) ([4]; female, replicate 4): 5.283
- prl expression (Fig. 8, prl) ([4]; female, replicate 5): 3.539
- prl expression (Fig. 8, prl) ([4]; female, replicate 6): 6.475
- prl expression (in words) ([4]; male pituitaries): substantially increased
- prl expression (Fig. 8, prl) ([4]; male, replicate 1): 3.340
- prl expression (Fig. 8, prl) ([4]; male, replicate 2): 4.481
- prl expression (Fig. 8, prl) ([4]; male, replicate 3): 3.982
- prl expression (Fig. 8, prl) ([4]; male, replicate 5): 3.314
- prl expression (Fig. 8, prl) ([4]; male, replicate 6): 4.421
